{
  "source": "ChEMBL document CHEMBL1145489",
  "about": "“Isoniazid induces its own resistance in nonreplicating Mycobacterium tuberculosis” (Antimicrob Agents Chemother, 2007)",
  "assay_type_in_all_cases": "functional",
  "key": {"[1]": {"tested_on": "Mycobacterium tuberculosis", "assay": "Antimicrobial activity against Mycobacterium tuberculosis H37Rv subculture 1 with wild type katG mutation"}, "[2]": {"tested_on": "Mycobacterium tuberculosis", "assay": "Antimicrobial activity against Mycobacterium tuberculosis H37Rv subculture 6 with katG W328R mutant"}, "[3]": {"tested_on": "Mycobacterium tuberculosis", "assay": "Antimicrobial activity against Mycobacterium tuberculosis H37Rv subculture 3 with katG D329H mutant"}, "[4]": {"tested_on": "Mycobacterium tuberculosis", "assay": "Antimicrobial activity against Mycobacterium tuberculosis H37Rv subculture 4 with wild type katG mutation in presence of catalase activity"}, "[5]": {"tested_on": "Mycobacterium tuberculosis", "assay": "Antimicrobial activity against Mycobacterium tuberculosis H37Rv subculture 5 with wild type katG mutation in absence of catalase activity"}},
  "data": [
    {"smiles": "NNC(=O)c1ccncc1", "note": "[ISONIAZID]", "values": [
      {"measurement": "MIC", "setting": "[1]", "result": 0.4, "unit": "µg/mL"},
      {"measurement": "MIC", "setting": "[2]", "result": ">2", "unit": "µg/mL"},
      {"measurement": "MIC", "setting": "[3]", "result": ">2", "unit": "µg/mL"},
      {"measurement": "MIC", "setting": "[4]", "result": ">2", "unit": "µg/mL"},
      {"measurement": "MIC", "setting": "[5]", "result": 0.4, "unit": "µg/mL"}
    ]}
  ]
}
